Measured values published in patent US12024499B2, “Muscarinic agonists” (Heptares Therapeutics Limited, priority 2015, dated 2024).

Experiments:
Format in all cases: cell-based
[1] = target: T1, human muscarinic M1 receptor (Homo sapiens, UniProt P11229); test: Alphascreen Surefire phospho-ERK1/2 assay, M1; settings: for EC50: CHO cells stably expressing human M1, agonist 5 min, 37° C., read-out: pEC50 M1 (converted); for Emax: CHO, read-out: % Emax cf. ACh, M1
T1 sequence (P11229 1-460): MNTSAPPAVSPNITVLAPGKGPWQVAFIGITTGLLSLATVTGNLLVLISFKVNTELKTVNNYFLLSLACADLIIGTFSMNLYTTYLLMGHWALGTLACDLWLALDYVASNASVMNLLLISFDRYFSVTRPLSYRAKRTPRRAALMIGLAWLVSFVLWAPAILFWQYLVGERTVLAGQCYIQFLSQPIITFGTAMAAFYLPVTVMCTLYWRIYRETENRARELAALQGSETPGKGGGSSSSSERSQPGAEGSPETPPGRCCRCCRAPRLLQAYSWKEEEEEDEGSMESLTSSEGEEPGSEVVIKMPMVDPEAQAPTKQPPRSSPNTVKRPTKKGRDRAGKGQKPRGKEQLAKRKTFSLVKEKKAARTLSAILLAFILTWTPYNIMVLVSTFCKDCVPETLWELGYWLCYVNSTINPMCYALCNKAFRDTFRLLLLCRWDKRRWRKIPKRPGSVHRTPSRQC
Description: (§1) ERK1/2 phosphorylation is a downstream consequence of both Gq/11 and Gi/o protein coupled receptor activation, making it highly suitable for the assessment of M1, M3 (Gq/11 coupled) and M2, M4 receptors (Gi/o coupled), rather than using different assay formats for different receptor subtypes. CHO cells stably expressing the human muscarinic M1, M2, M3 or M4 receptor were plated (25K/well) onto 96-well tissue culture plates in MEM-alpha+10% dialysed FBS. Once adhered, cells were serum-starved overnight. Agonist stimulation was performed by the addition of 5 μL agonist to the cells for 5 min (37° C.). Media was removed and 50 μL of lysis buffer added. After 15 min, a 4 μL sample was transferred to 384-well plate and 7 μL of detection mixture added. Plates were incubated for 2 h with gentle agitation in the dark and then read on a PHERAstar plate reader.
(§2) pEC50 and Emax figures were calculated from the resulting data for each receptor subtype.

[2] = target: T2, human muscarinic M4 receptor (Homo sapiens, UniProt P08173); test: Alphascreen Surefire phospho-ERK1/2 assay, M4; settings: for EC50: CHO cells stably expressing human M4, agonist 5 min, 37° C., read-out: pEC50 M4 (converted); for Emax: CHO, read-out: % Emax cf. ACh, M4
T2 construct: expressed in transfected cells
T2 sequence (P08173 1-479): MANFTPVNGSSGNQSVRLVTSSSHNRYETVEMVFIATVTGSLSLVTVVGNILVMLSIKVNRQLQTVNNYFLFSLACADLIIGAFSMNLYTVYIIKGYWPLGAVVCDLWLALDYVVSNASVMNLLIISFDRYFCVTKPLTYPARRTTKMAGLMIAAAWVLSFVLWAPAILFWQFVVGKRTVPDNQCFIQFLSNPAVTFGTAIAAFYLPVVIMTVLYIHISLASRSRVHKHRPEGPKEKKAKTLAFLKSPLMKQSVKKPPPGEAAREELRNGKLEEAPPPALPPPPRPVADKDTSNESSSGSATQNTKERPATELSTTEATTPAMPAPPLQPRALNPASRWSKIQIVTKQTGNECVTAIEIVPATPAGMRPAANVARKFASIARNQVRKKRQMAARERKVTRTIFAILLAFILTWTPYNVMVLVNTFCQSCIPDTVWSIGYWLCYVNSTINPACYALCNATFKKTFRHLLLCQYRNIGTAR
Description: as §1, §2

[3] = target: T3, human muscarinic M2 receptor (Homo sapiens, UniProt P08172); test: Alphascreen Surefire phospho-ERK1/2 assay, M2; settings: for EC50: CHO cells stably expressing human M2, agonist 5 min, 37° C., read-out: pEC50 M2 (converted); for Emax: CHO, read-out: % Emax cf. ACh, M2
T3 sequence (P08172 1-466): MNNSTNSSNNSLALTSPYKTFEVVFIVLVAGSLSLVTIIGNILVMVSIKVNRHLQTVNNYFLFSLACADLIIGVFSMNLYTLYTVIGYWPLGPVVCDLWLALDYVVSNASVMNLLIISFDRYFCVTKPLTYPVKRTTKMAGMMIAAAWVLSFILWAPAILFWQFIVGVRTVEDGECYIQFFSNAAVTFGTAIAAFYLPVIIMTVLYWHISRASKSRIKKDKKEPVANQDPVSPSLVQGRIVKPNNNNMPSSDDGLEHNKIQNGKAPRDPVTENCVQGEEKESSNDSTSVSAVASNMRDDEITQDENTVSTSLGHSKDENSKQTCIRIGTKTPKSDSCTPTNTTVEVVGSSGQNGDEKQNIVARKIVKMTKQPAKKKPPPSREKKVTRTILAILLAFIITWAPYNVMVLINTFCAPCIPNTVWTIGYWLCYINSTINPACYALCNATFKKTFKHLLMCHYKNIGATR
Description: as §1, §2

[4] = target: T4, human muscarinic M3 receptor (Homo sapiens, UniProt P20309); test: Alphascreen Surefire phospho-ERK1/2 assay, M3; settings: for EC50: CHO cells stably expressing human M3, agonist 5 min, 37° C., read-out: pEC50 M3 (converted); for Emax: CHO, read-out: % Emax cf. ACh, M3
T4 construct: expressed in transfected cells
T4 sequence (P20309 whole entry): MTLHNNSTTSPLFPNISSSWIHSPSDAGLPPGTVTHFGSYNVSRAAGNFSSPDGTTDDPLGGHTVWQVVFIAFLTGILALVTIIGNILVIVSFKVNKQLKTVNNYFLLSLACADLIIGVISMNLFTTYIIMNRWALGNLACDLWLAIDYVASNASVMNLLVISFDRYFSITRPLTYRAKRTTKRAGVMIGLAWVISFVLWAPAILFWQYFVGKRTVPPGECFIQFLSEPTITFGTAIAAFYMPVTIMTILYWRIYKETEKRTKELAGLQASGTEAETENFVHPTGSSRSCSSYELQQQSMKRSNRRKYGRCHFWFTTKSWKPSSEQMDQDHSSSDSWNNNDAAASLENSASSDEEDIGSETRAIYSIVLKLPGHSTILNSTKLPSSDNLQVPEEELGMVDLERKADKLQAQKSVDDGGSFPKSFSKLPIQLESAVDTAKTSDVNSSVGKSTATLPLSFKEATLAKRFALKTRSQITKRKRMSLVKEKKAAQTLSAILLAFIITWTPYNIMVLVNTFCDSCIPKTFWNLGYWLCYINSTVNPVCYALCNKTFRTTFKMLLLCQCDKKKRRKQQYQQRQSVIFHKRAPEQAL
Description: as §1, §2

Structure (SMILES) | EC50 [1] | Emax [1] | EC50 [2] | Emax [2] | EC50 [3] | Emax [3] | EC50 [4] | Emax [4]
CCOC(=O)N1CCC2(CC(N3CCC(N4CC(F)(F)C4)CC3)C2)C1 (single isomer, unassigned) [Example 1-1, Ethyl 2-[4-(3,3-difluoroazetidin-1-yl)piperidin-1-yl]-6-azaspiro[3.4]octane-6-carboxylate] | 1000 nM | 24% | 158 nM | 26% |  |  |  | 
CCOC(=O)N1CCC2(CC(N3CCC(N4CC[C@@H]4C(=O)OC)CC3)C2)C1 (single isomer, unassigned) [Example 1-2] | > 20000 nM | 37% | 63.1 nM | 67% | > 20000 nM | 7% | > 20000 nM | 7%
CCOC(=O)N1CCC2(CC(N3CCC(N4CCC4=O)CC3)C2)C1 (single isomer, unassigned) [Example 1-3, Ethyl 2-[4-(2-oxoazetidin-1-yl)piperidin-1-yl]-6-azaspiro[3.4]octane-6-carboxylate] | > 20000 nM | 20% | 200 nM | 23% |  |  |  | 
CCOC(=O)N1CCC2(CC(N3CCC(N4C(=O)C[C@@H]4C)CC3)C2)C1 (single isomer, unassigned) [Example 1-4] | > 20000 nM | 18% | 158 nM | 41% |  |  |  | 

The next lines start with the values.

EC50 [1] | Emax [1] | EC50 [2] | Emax [2] | EC50 [3] | Emax [3] | EC50 [4] | Emax [4] | Structure (SMILES)
794 nM | 94% | 79.4 nM | 101% | 501 nM | 26% | > 20000 nM | 21% | CCOC(=O)N1CCC2(CC(N3CCC(N4C(=O)C[C@H]4CC)CC3)C2)C1 (single isomer, unassigned) [Example 1-7]
> 20000 nM | 13% | 251 nM | 74% |  |  |  |  | CCOC(=O)N1CCC2(CC(N3CCC(N4C(=O)C[C@H]4C)CC3)C2)C1 (single isomer, unassigned) [Example 1-6]
316 nM | 69% | 100 nM | 56% | > 20000 nM | 37% | > 20000 nM | 0% | CCOC(=O)N1CCC2(CC(N3CCC(N4C(=O)C[C@@H]4CC)CC3)C2)C1 (single isomer, unassigned) [Example 1-5]
